In patent publication US20090124645A1, “Novel Pyrimidine-2,4-Diamine Derivatives and their Use as Modulators of Small-Conductance Calcium-Activated Potassium Channels” (NeuroSearch A/S, priority 2005, published 2009):
Structures can show the parent of a compound that is named as a salt.

Compound | melting point [°C]
FC(F)(F)c1cccc(CNc2ccnc(NCc3cccc(C(F)(F)F)c3)n2)c1 (as salt: HCl) [Example 3, N^2,N^4-Bis[3-(trifluoromethyl)benzyl]pyrimidine-2,4-diamine] | 172
Clc1ccc(CNc2ccnc(NCc3ccc(Cl)c(Cl)c3)n2)cc1Cl (as salt: HCl) [Example 4, N^2,N^4-Bis(3,4-dichlorobenzyl)pyrimidine-2,4-diamine] | 167 to 170
CC(Nc1ccnc(NC(C)c2ccc(F)cc2)n1)c1ccc(F)cc1 (stereo not drawn) (as salt: HCl) [Example 5, N^2,N^4-Bis[1-(4-fluorophenyl)ethyl]pyrimidine-2,4-diamine] | 151 to 154
Clc1ccc(CNc2ccnc(NCc3ccc(Cl)cc3)n2)cc1 (as salt: HCl) [Example 7, N^2,N^4-Bis(4-chlorobenzyl)pyrimidine-2,4-diamine] | 213 to 216
Fc1ccc(CCNc2ccnc(NCCc3ccc(F)cc3)n2)cc1 (as salt: HCl) [Example 10, N^2,N^4-Bis[2-(4-fluorophenyl)ethyl]pyrimidine-2,4-diamine] | 177.4 to 179.4
Clc1ccc(CCNc2ccnc(NCCc3ccc(Cl)cc3)n2)cc1 (as salt: HCl) [Example 11, N^2,N^4-Bis[2-(4-chlorophenyl)ethyl]pyrimidine-2,4-diamine] | 201 to 204
